Read-outs that look alike come from different tables or passages of the source.
Columns and labels:
[1] = system: barnyard grass Echinochloa crusgalli; assay: Petri dish culture, growth inhibition of root and stalk of barnyard grass; type: in vivo; conditions: Echinochloa crus-galli, 120 h, 5 days; for inhibition at 1 µg/mL: 1 mg/L; for inhibition at 10 µg/mL: 10 mg/L
Description: (§1) The synthesized compounds were tested for the herbicidal activity on model plants including a monocotyledon (barnyard grass) and a dicotyledon (rape) by the reported Petri dish culture method. The percent inhibitory ratios against the growth of root and stalk of barnyard grass and rape at different dosage concentrations were calculated, and the compounds with appreciable inhibitory potencies are selected and shown in Table 1 and Table 2. Several features of the inhibitory activities can be derived. First, all the compounds have stronger inhibition against the growth of the dicotyledon rape than against the monocotyledon barnyard grass, showing appreciable selectivity.
(§2) The herbicidal activity was examined for the growth inhibition effect of the dicotyledon rape Brassica napus and the monocotyledon barnyard grass Echinochloa crusgalli, using the standard Petri dish test and the pre-emergence treatment procedure. […] Nine mL of the solution was added in a Petri dish of 9 cm diameter and two pieces of filter paper were placed on the dish bottom. Twenty seeds each of rape and barnyard grass were placed on the filter paper. The covered Petri dish was transferred into an artificial climate incubator (MGC-400H, Shantou Keyi Co., Ltd., China), where the conditions were controlled at temperature 23 ± 1 °C, humidity 60 ± 5%, light intensity 10 Klux, and photoperiod 12 h/day. The incubation was continued for 5 days, then the lengths of 10 roots and 10 stems for each type of plant were measured and the mean values were calculated. The percent inhibitory ratios were calculated relative to control plants exposing to distilled water instead of the compound solution.

[2] = system: rape Brassica napus; assay: Petri dish culture, growth inhibition of root and stalk of rape; type: in vivo; conditions: Brassica napus, 120 h, 5 days; for inhibition at 1 µg/mL: 1 mg/L; for inhibition at 10 µg/mL: 10 mg/L
Description: as §1, §2

[3] = system: rape Brassica napus; assay: Concentration-dependent root elongation inhibition of rape (IC50); type: in vivo; conditions: Brassica napus
Description: Several representative compounds selected from the 2-phenoxy-4H-3,1-benzoxazin-4-one and 2-phenoxy-3H-quinazolin-4-one groups were tested their concentration dependant activities and the half maximal inhibitory concentrations (IC50 values) are shown in Table 3. Obviously, the 2-phenoxy-4H-3,1-benzoxazin-4-ones 3m and 3o have IC50 values near to that of the commercial herbicidal 2,4-D. More importantly, these molecules consist of 2-phenoxymethyl group with halo substituents both at the 2- and 4- positions of the benzene ring, a similar pattern to the commercial hormone herbicides 2,4-D, clomeprop, and 2,4-DB, as well as the ACCase herbicide diclofop-methyl. […] Moreover, if no halo group exists on the benzene ring, the activity will decrease dramatically. On the other hand, the substructure 4H-3,1-benzoxazin-4-one in this work and the carboxylic group in the commercial phenoxyethanoic and phenoxypropionic acid herbicides play also a crucial role in the contribution to the activities of the compounds, meaning they are active substructures.
The herbicidal activity was examined for the growth inhibition effect of the dicotyledon rape Brassica napus and the monocotyledon barnyard grass Echinochloa crusgalli, using the standard Petri dish test and the pre-emergence treatment procedure. Briefly, the compounds to be tested were dissolved in DMF and emulsified with Tween 80, and the solutions were diluted with water to the concentrations of […], respectively. Nine mL of the solution was added in a Petri dish of 9 cm diameter and two pieces of filter paper were placed on the dish bottom. Twenty seeds each of rape and barnyard grass were placed on the filter paper. The covered Petri dish was transferred into an artificial climate incubator (MGC-400H, Shantou Keyi Co., Ltd., China), where the conditions were controlled at temperature 23 ± 1 °C, humidity 60 ± 5%, light intensity 10 Klux, and photoperiod 12 h/day. The incubation was continued for 5 days, then the lengths of 10 roots and 10 stems for each type of plant were measured and the mean values were calculated. The percent inhibitory ratios were calculated relative to control plants exposing to distilled water instead of the compound solution.

[4] = root growth, read-out: Relative inhibition, root
[5] = stalk growth, read-out: Relative inhibition, stalk
[6] = rape root elongation, Table 3, read-out: IC50 for the root elongation inhibition of rape

| Structure (SMILES) | inhibition at 1 µg/mL [1, 4] [%] | inhibition at 1 µg/mL [1, 5] [%] | inhibition at 10 µg/mL [1, 4] [%] | inhibition at 10 µg/mL [1, 5] [%] | inhibition at 1 µg/mL [2, 4] [%] | inhibition at 1 µg/mL [2, 5] [%] | inhibition at 10 µg/mL [2, 4] [%] | inhibition at 10 µg/mL [2, 5] [%] | melting point [°C] | IC50 [3, 6] [µM] | IC50 ([3]; rape root growth, read-out: IC50, inhibitory efficacy against the rape root growth) [µM] |
| --- | --- | --- | --- | --- | --- | --- | --- | --- | --- | --- | --- |
| O=c1oc(COc2ccc(Cl)cc2Cl)nc2ccccc12 [3m, 2-((2,4-Dichlorophenoxy)methyl)-4H-3,1-benzoxazin-4-one] | 38.3 | -22.7 | 100 | -0.6 | 96.3 | 77.7 | 100 | 93.8 | 118.5 to 119.3 | 10.3 | – |
| O=c1oc(COc2ccc(Cl)cc2Cl)nc2cccc(Cl)c12 [3n, 5-Chloro-2-((2,4-dichlorophenoxy)methyl)-4H-benzo[3,1]oxazin-4-one] | 44.4 | 12.8 | 57.5 | -1.9 | 80.5 | 38.7 | 79.2 | 45.9 | 161.9 to 163.2 | 43.5 | – |
| O=c1oc(COc2ccc(Cl)cc2Cl)nc2ccc(Cl)cc12 [3o, 6-Chloro-2-((2,4-dichlorophenoxy)methyl)-4H-3,1-benzoxazin-4-one] | 73.6 | -29.1 | 89.4 | 14.5 | 93.7 | 66.2 | 100 | 91.4 | 157.9 to 160.1 | 10.7 | 0.0104 |
| O=c1oc(COc2ccc(Cl)cc2Cl)nc2cc(Cl)ccc12 [3p, 7-Chloro-2-((2,4-dichlorophenoxy)methyl)-4H-3,1-benzoxazin-4-one] | 64.3 | 5.9 | 100 | -14.4 | 98 | 82.3 | 100 | 91.4 | 139.6 to 142.5 | 11.1 | – |
| COc1cc2nc(COc3ccc(Cl)cc3Cl)oc(=O)c2cc1OC [3q, 2-((2,4-Dichlorophenoxy)methyl)-6,7-dimethoxy-4H-3,1-benzoxazin-4-one] | 35.5 | -7.4 | 51.9 | -52.8 | 58.3 | 14.8 | 100 | 85.2 | 161.9 to 163.2 | 142 | – |
| Nn1c(COc2ccc(Cl)cc2Cl)nc2ccccc2c1=O [4f, 3-Amino-2-((2,4-dichlorophenoxy)methyl)-3H-quinazolin-4-one] | 35 | -5 | 22.2 | -6.6 | 65.6 | 48.1 | 73.4 | 48.1 | 214.6 to 215.7 | 224 | – |
| COc1cc2nc(COc3ccc(Cl)cc3Cl)n(N)c(=O)c2cc1OC [4j, 3-Amino-2-((2,4-dichlorophenoxy)methyl)-6,7-dimethoxy-3H-quinazolin-4-one] | 7.7 | 8.3 | 60 | 5 | 58.4 | 40.2 | 84.9 | 67.2 | 272.3 to 273.1 | 168 | – |
| Cn1c(COc2ccc(Cl)cc2)nc2cccc(Cl)c2c1=O [4k, 5-Chloro-2-((4-chlorophenoxy)methyl)-3-methyl-3H-quinazolin-4-one] | 32.2 | 7.5 | 50.9 | 1.5 | 48.8 | 21.6 | 81.9 | 52.9 | 184.9 to 185.7 | 201 | – |
